The values below come from patent US11078170B2 (Assembly Biosciences, Inc., priority 2017, dated 2021).

Broadly, the EC50 is the midpoint of the concentration-response curve.

The structures appear in SMILES notation. Some results are limits rather than exact numbers.

The assay concerns HBV viral production from HepAD38 cells. Briefly: Activity of test compounds on viral production from HepAD38 cells (viral load by qPCR of HBV core sequence in supernatant). It counts as cell-based. The conditions noted are these: Hepatitis B virus, 120 h, 5 days incubation, HBV DNA in supernatant by qPCR, top concentration 10 μM, read-out: Viral Load EC50 Activity range. The gist of the method:
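HepAD38 cells, 50,000/well in tetracycline-free 2% FBS medium, treated 5 days at 37° C. with compound from 10 μM top concentration. HBV DNA in supernatant quantified by TaqMan qPCR of core sequence against DNA standards, relative to DMSO wells; CellTiter-Glo viability read in parallel. EC50/CC50 from four-parameter logistic fit.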
For orientation: Quantitative PCR measures a nucleic acid by following its amplification.
Take `CN1[C@H](C(=O)Nc2ccc(F)c(Cl)c2)C[C@H](c2ccc(-c3c[nH]cn3)s2)NS1(=O)=O` [HBV-CSU-331-ISO-I, Cis-5-(5-(1H-imidazol-4-yl)thiophen-2-yl)-N-(3-chloro-4-fluorophenyl)-2-methyl-1,2,6-thiadiazinane-3-carboxamide 1,1-dioxide]: the EC50 is < 1000 nM.
With `CN1[C@@H](C(=O)Nc2ccc(F)c(Cl)c2)C[C@@H](c2ccc(-c3c[nH]cn3)s2)NS1(=O)=O` [HBV-CSU-331-ISO-II, Cis-5-(5-(1H-imidazol-4-yl)thiophen-2-yl)-N-(3-chloro-4-fluorophenyl)-2-methyl-1,2,6-thiadiazinane-3-carboxamide 1,1-dioxide] the figure was 1000 to 5000 nM; with `CN1[C@H](C(=O)Nc2ccc(F)c(Cl)c2)C[C@H](c2ncc(-c3c[nH]cn3)s2)NS1(=O)=O` [HBV-CSU-333-ISO-I, 5-(5-(1H-imidazol-4-yl)thiazol-2-yl)-N-(3-chloro-4-fluorophenyl)-2-methyl-1,2,6-thiadiazinane-3-carboxamide 1,1-dioxide], < 1000 nM; with `CCc1sc(C2CC(C(=O)Nc3ccc(F)c(Cl)c3)N(C)S(=O)(=O)N2)cc1Br` (stereo not shown) [HBV-CSU-334, 5-(4-bromo-5-ethylthiophen-2-yl)-N-(3-chloro-4-fluorophenyl)-2-methyl-1,2,6-thiadiazinane-3-carboxamide 1,1-dioxide], < 1000 nM.
For the compound `Cc1cc(C2CC(C(=O)Nc3ccc(F)c(Cl)c3)N(C)S(=O)(=O)N2)sc1Br` (stereo not drawn) [HBV-CSU-335, Cis-5-(5-bromo-4-methylthiophen-2-yl)-N-(3-chloro-4-fluorophenyl)-2-methyl-1,2,6-thiadiazinane-3-carboxamide 1,1-dioxide], the EC50 is < 1000 nM.
With `[2H]C([2H])([2H])N1C(C(=O)Nc2ccc(F)c(Cl)c2)CC(c2ncc(Br)s2)NS1(=O)=O` (stereo not shown) [HBV-CSU-336, 5-(5-Bromothiazol-2-yl)-N-(3-chloro-4-fluorophenyl)-2-(methyl-d3)-1,2,6-thiadiazinane-3-carboxamide 1,1-dioxide] the figure was < 1000 nM.
In the case of `[2H]C([2H])([2H])N1[C@H](C(=O)Nc2ccc(F)c(Cl)c2)C[C@H](c2ncc(Br)s2)NS1(=O)=O` [HBV-CSU-336-ISO-I, 5-(5-Bromothiazol-2-yl)-N-(3-chloro-4-fluorophenyl)-2-(methyl-d3)-1,2,6-thiadiazinane-3-carboxamide 1,1-dioxide], the EC50 was < 1000 nM.
Under `[2H]C([2H])([2H])N1[C@@H](C(=O)Nc2ccc(F)c(Cl)c2)C[C@@H](c2ncc(Br)s2)NS1(=O)=O` [HBV-CSU-336-ISO-II, 5-(5-Bromothiazol-2-yl)-N-(3-chloro-4-fluorophenyl)-2-(methyl-d3)-1,2,6-thiadiazinane-3-carboxamide 1,1-dioxide] stands 1000 to 5000 nM; under `[2H]C([2H])([2H])N1[C@H](C(=O)Nc2ccc(F)c(Cl)c2)C[C@H](c2ncc(-c3cn(C([2H])([2H])[2H])cn3)s2)NS1(=O)=O` [HBV-CSU-337-ISO-I, Cis-N-(3-Chloro-4-fluorophenyl)-2-(methyl-d3)-5-(5-(1-(methyl-d3)-1H-imidazol-4-yl)thiazol-2-yl)-1,2,6-thiadiazinane-3-carboxamide 1,1-dioxide], < 1000 nM; under `[2H]C([2H])([2H])N1[C@H](C(=O)Nc2ccc(F)c(Cl)c2)C[C@H](c2ncc(-c3cn(C)cn3)s2)NS1(=O)=O` [HBV-CSU-338-ISO-I, Cis-N-(3-Chloro-4-fluorophenyl)-2-(methyl-d3)-5-(5-(1-methyl-1H-imidazol-4-yl)thiazol-2-yl)-1,2,6-thiadiazinane-3-carboxamide 1,1-dioxide], < 1000 nM.
With `CN1[C@H](C(=O)Nc2ccc(F)c(Cl)c2)C[C@H](c2ccc3c(c2)ncn3C)NS1(=O)=O` [HBV-CSU-360-ISO-I, Cis-N-(3-chloro-4-fluorophenyl)-2-methyl-5-(1-methyl-1H-benzo[d]imidazol-5-yl)-1,2,6-thiadiazinane-3-carboxamide 1,1-dioxide] the figure was 1000 to 5000 nM; with `CN1[C@H](C(=O)Nc2ccc(F)c(Br)c2)C[C@H](c2ncc(-c3cn(C)cn3)s2)NS1(=O)=O` [HBV-CSU-369, (3S,5R)—N-(3-bromo-4-fluorophenyl)-2-methyl-5-(5-(1-methyl-1H-imidazol-4-yl)thiazol-2-yl)-1,2,6-thiadiazinane-3-carboxamide 1,1-dioxide], < 1000 nM; with `[2H]C([2H])([2H])N1[C@H](C(=O)Nc2ccc(F)c(Cl)c2)C[C@H](c2ccc(Br)s2)NS1(=O)=O` [HBV-CSU-370-ISO-I, Cis-5-(5-bromothiophen-2-yl)-N-(3-chloro-4-fluorophenyl)-2-(methyl-d3)-1,2,6-thiadiazinane-3-carboxamide 1,1-dioxide], < 1000 nM.
Under `[2H]C1C([2H])(c2ccc(Br)s2)NS(=O)(=O)N(C)C1([2H])C(=O)Nc1ccc(F)c(Cl)c1` (stereo not drawn) [HBV-CSU-371, Cis-5-(5-Bromothiophen-2-yl)-N-(3-chloro-4-fluorophenyl)-2-methyl-1,2,6-thiadiazinane-3,4,5-d3-3-carboxamide 1,1-dioxide] stands < 1000 nM; under `[2H]C1C([2H])(c2ccc(Br)s2)NS(=O)(=O)N(C([2H])([2H])[2H])C1([2H])C(=O)Nc1ccc(F)c(Cl)c1` (stereo not drawn) [HBV-CSU-372, Cis-5-(5-bromothiophen-2-yl)-N-(3-chloro-4-fluorophenyl)-2-(methyl-d3)-1,2,6-thiadiazinane-3,4,5-d3-3-carboxamide 1,1-dioxide], < 1000 nM; under `[2H]C([2H])([2H])N1[C@H](C(=O)Nc2ccc(F)c(Cl)c2)C[C@H](c2ccc(-c3cn(C)cn3)s2)NS1(=O)=O` [HBV-CSU-373-ISO-I, Cis-N-(3-Chloro-4-fluorophenyl)-2-(methyl-d3)-5-(5-(1-methyl-1H-imidazol-4-yl)thiophen-2-yl)-1,2,6-thiadiazinane-3-carboxamide 1,1-dioxide], < 1000 nM.
As for `[2H]C([2H])([2H])N1C(C(=O)Nc2ccc(F)c(Cl)c2)CC(c2ccc(-c3cn(C)cn3)s2)NS1(=O)=O` (stereo not shown) [HBV-CSU-373], the EC50 is < 1000 nM.
Take `[2H]C([2H])([2H])N1C(C(=O)Nc2ccc(F)c(Cl)c2)CC(c2ccc(-c3cn(C([2H])([2H])[2H])cn3)s2)NS1(=O)=O` (stereo not shown) [HBV-CSU-374]: the concentration giving a half-maximal response (EC50) was < 1000 nM.
Under `[2H]C1C([2H])(c2ccc(-c3cn(C)cn3)s2)NS(=O)(=O)N(C)C1([2H])C(=O)Nc1ccc(F)c(Cl)c1` (stereo not drawn) [HBV-CSU-375, Cis-N-(3-Chloro-4-fluorophenyl)-2-methyl-5-(5-(1-methyl-1H-imidazol-4-yl)thiophen-2-yl)-1,2,6-thiadiazinane-3,4,5-d3-3-carboxamide 1,1-dioxide] stands < 1000 nM; under `[2H]C1C([2H])(c2ccc(-c3cn(C([2H])([2H])[2H])cn3)s2)NS(=O)(=O)N(C)C1([2H])C(=O)Nc1ccc(F)c(Cl)c1` (stereo not drawn) [HBV-CSU-376, Cis-N-(3-Chloro-4-fluorophenyl)-2-methyl-5-(5-(1-(methyl-d3)-1H-imidazol-4-yl)thiophen-2-yl)-1,2,6-thiadiazinane-3,4,5-d3-3-carboxamide 1,1-dioxide], < 1000 nM; under `[2H]C1C([2H])(c2ccc(-c3cn(C([2H])([2H])[2H])cn3)s2)NS(=O)(=O)N(C([2H])([2H])[2H])C1([2H])C(=O)Nc1ccc(F)c(Cl)c1` (stereo not drawn) [HBV-CSU-378, Cis-N-(3-chloro-4-fluorophenyl)-2-(methyl-d3)-5-(5-(1-(methyl-d3)-1H-imidazol-4-yl)thiophen-2-yl)-1,2,6-thiadiazinane-3,4,5-d3-3-carboxamide 1,1-dioxide], < 1000 nM.
As for `CN1[C@H](C(=O)Nc2ccc(F)c(Br)c2)C[C@H](c2ncc(Br)s2)NS1(=O)=O` [HBV-CSU-383, (3S,5R)—N-(3-bromo-4-fluorophenyl)-5-(5-bromothiazol-2-yl)-2-methyl-1,2,6-thiadiazinane-3-carboxamide 1,1-dioxide], the EC50 was < 1000 nM.
